From US20200024278A1, “COMPOSITION COMPRISING ANTIBIOTIC COMPOUND AND AN HETEROCYCLIC COMPOUND AND THEIR USE IN PREVENTING OR TREATING BACTERIAL INFECTIONS” (MUTABILIS, priority 2016, published 2020)
Where two headings read alike, the source gives them in different places.

Tests used:
Experiment in all cases: MIC, broth microdilution (CLSI), substance alone or ATB combined with compound at 4 or 8 μg/mL
ECO 190317 = assay type: cell-based, E. coli; settings: Escherichia coli, ECO 190317
Summary of the method: (§1)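 Potentiation format: antibiotic dilution series run with test compound held at 4 or 8 μg/mL, alongside compound-alone MICs. Broth microdilution per CLSI in ca-MHB, 16-20 h at 35° C.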

ECO UFR39 = assay type: cell-based, E. coli; settings: Escherichia coli, ECO UFR39
Summary of the method: as §1

KPN 6299 = assay type: cell-based, K. pneumoniae; settings: Klebsiella pneumoniae
Summary of the method: as §1

KPN BAA-1898 = assay type: cell-based, K. pneumoniae; settings: Klebsiella pneumoniae, BAA1898, KPN BAA-1898
Summary of the method: as §1

KPN UFR42 = assay type: cell-based, K. pneumoniae; settings: Klebsiella pneumoniae, KPN UFR42
Summary of the method: as §1

KPN UFR68 = assay type: cell-based, K. pneumoniae; settings: Klebsiella pneumoniae, substance alone
Summary of the method: as §1

ECL P99 = assay type: cell-based, E. cloacae; settings: Enterobacter cloacae, ECL P99
Summary of the method: as §1

PAE 105250 = assay type: cell-based, P. aeruginosa; settings: Pseudomonas aeruginosa, PAE 105250
Summary of the method: as §1

PAE UFR48 = assay type: cell-based, P. aeruginosa; settings: Pseudomonas aeruginosa, PAE UFR48
Summary of the method: as §1

PAE UFR90 = assay type: cell-based, P. aeruginosa; settings: Pseudomonas aeruginosa, PAE UFR90
Summary of the method: as §1

SAU 29213 = assay type: cell-based, S. aureus; settings: Staphylococcus aureus
Summary of the method: as §1

SPN 49619 = assay type: cell-based, S. pneumoniae; settings: Streptococcus pneumoniae, SPN 49619
Summary of the method: as §1

[1] = antibiotic alone, read-out: MIC ATB alone

- MIC (ECO 190317; [1]): > 1020 µg/mL
- MIC (ECO 190317; substance alone, read-out: MIC): > 1020 µg/mL
- MIC (ECO UFR39; [1]): > 1020 µg/mL
- MIC (ECO UFR39; substance alone, read-out: MIC): > 1020 µg/mL
- MIC (KPN 6299; [1]): > 1020 µg/mL
- MIC (KPN 6299; substance alone, read-out: MIC): > 1020 µg/mL
- MIC (KPN BAA-1898; [1]): > 1020 µg/mL
- MIC (KPN BAA-1898; substance alone, read-out: MIC): > 1020 µg/mL
- MIC (KPN UFR42; [1]): > 256 µg/mL
- MIC (KPN UFR42; substance alone, read-out: MIC): > 256 µg/mL
- MIC (KPN UFR68): > 1020 µg/mL
- MIC (ECL P99; [1]): 512 µg/mL
- MIC (ECL P99; substance alone, read-out: MIC): 512 µg/mL
- MIC (PAE 105250; [1]): 128 µg/mL
- MIC (PAE 105250; substance alone, read-out: MIC): 128 µg/mL
- MIC (PAE UFR48; [1]): 256 µg/mL
- MIC (PAE UFR48; substance alone, read-out: MIC): 256 µg/mL
- MIC (PAE UFR90; [1]): 256 µg/mL
- MIC (PAE UFR90; substance alone, read-out: MIC): 256 µg/mL
- MIC (SAU 29213; antibiotic alone, SAU 29213, read-out: MIC ATB alone): 8 µg/mL
- MIC (SAU 29213; substance alone, SAU 29213 (MSSA 29213), read-out: MIC): 8 µg/mL
- MIC (SPN 49619; [1]): 0.5 µg/mL
- MIC (SPN 49619; substance alone, read-out: MIC): 0.5 µg/mL
SMILES: CCN1CCN(C(=O)N[C@@H](C(=O)N[C@@H]2C(=O)N3[C@@H]2SC(C)(C)[C@@H]3C(=O)O)c2ccccc2)C(=O)C1=O [PIP, Piperacillin, reference compound]
